Source: US20170029388A1, “Treatment of Neurodegenerative Diseases with Asparagine Endopeptidase (AEP) Inhibitors and Compositions Related Thereto” (INTERCONTINENTAL GREAT BRANDS LLC, priority 2014, published 2017)
Like-named read-outs stand apart in the source and are kept apart here. One block for each molecule: values may come before it.

Tests used:
[1] = human, microsomes
[2] = mouse, microsomes
Cathepsin-L = Cathepsin-L (Homo sapiens, UniProt P07711); experiment: Cathepsin-L enzymatic assay (specificity); format: biochemical
Chain of Cathepsin-L (P07711 114-333, species assumed): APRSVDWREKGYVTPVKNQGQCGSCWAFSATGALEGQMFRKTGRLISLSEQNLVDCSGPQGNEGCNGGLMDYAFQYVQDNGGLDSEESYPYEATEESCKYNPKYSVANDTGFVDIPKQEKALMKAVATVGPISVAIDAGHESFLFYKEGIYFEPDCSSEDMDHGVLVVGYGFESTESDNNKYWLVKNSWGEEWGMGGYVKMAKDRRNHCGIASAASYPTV
Procedure: (§1) Purified recombinant enzyme was incubated with various concentrations of inhibitor in appropriate assay buffers in the presence of increasing concentrations of inhibitor. The formation of fluorescent product was monitored in duplicate reactions and the data was fit to appropriate equations to calculate the IC50 values.
(§2) To identify small-molecule inhibitors of AEP, a high-throughput screen was designed in conjunction with the Emory Chemical Biology Discovery Center. The screen incorporated mouse kidney lysates to assay a 54,384 compound library. […] Additional structural analysis and grouping allowed the compounds to be sorted into 8 distinct backbone families. […] The specificity of the compounds was also determined using four major cysteine proteases (FIG. 2).
Cathepsin-L—100 nM enzyme was pre-incubated with inhibitor in assay buffer (100 mM Sodium Acetate pH 5.5, 1 mM EDTA) for 10 min at 37° C. The reaction was initiated upon addition of 25 μM substrate (D-Val-Leu-Lys-AMC (Bachem)).

Cathepsin-S = target: T1, Cathepsin-S (Homo sapiens, UniProt P25774); experiment: Cathepsin-S enzymatic assay (specificity); format: biochemical
T1 construct: purchased Athens Research and Technology
T1 sequence (P25774 115-331): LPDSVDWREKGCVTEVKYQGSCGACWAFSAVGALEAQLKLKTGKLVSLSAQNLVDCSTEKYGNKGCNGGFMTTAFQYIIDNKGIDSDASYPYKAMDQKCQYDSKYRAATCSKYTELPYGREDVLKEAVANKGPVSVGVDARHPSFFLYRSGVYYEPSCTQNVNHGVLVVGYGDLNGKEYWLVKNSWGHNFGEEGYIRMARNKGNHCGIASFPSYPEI
Procedure: as §1, §2
Cathepsin-S—100 nM enzyme was pre-incubated with inhibitor in assay buffer (100 mM NaH2PO4 pH 6.5, 100 mM NaCl) for 10 min at 37° C. The reaction was initiated upon addition of 25 μM substrate (Boc-Val-Leu-Lys-AMC (Bachem)).

Caspase-3 = target: T2, Caspase-3 (Homo sapiens, UniProt P42574); experiment: Caspase-3 enzymatic assay (specificity); format: biochemical
T2 construct: purchased Millipore
T2 sequence (P42574 29-175 limits assumed, species assumed): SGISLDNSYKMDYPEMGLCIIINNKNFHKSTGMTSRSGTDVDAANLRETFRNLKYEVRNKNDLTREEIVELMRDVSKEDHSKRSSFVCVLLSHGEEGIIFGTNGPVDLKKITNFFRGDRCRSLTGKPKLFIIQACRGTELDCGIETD
T2 sequence (P42574 176-277 limits assumed, species assumed): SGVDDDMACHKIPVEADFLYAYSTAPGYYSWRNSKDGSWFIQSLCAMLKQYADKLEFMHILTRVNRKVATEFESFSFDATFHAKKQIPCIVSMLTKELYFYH
Procedure: as §1, §2
(§3) Caspase-3 and 8 —The enzyme was pre-incubated with inhibitor in assay buffer (100 mM HEPES pH 7.4, 0.1% CHAPS, 10% Sucrose) for 10 min at 37° C. The reaction was initiated upon addition of 25 μM substrate (Ac-Asp-Glu-Val-Asp-AMC (Bachem)).

Caspase-8 = target: T3, Caspase-8 (Homo sapiens, UniProt Q14790); experiment: Caspase-8 enzymatic assay (specificity); format: biochemical
T3 construct: purchased Millipore
T3 sequence (Q14790 217-374 limits assumed, species assumed): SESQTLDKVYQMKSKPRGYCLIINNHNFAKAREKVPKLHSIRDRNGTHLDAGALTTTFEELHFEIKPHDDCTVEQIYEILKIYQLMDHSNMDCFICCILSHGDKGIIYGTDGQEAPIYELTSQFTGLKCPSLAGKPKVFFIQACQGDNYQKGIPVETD
T3 sequence (Q14790 385-479 limits assumed, species assumed): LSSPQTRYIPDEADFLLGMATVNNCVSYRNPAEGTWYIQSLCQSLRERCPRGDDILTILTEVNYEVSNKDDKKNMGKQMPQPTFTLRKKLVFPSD
Procedure: as §1, §2, §3

HepG2 cells = experiment: COMET assay and micronucleus assay (genotoxicity); format: cell-based, human; settings: 50 μM, 24 hr
Procedure: A. MTT assay, in which 50 μM of each compound was incubated with HepG2 cells for 24 hrs. The compound-containing medium was removed and the cells were incubated with MTT solution for 3 hrs. Subsequently, the MTT solution was replaced with DMSO and the 0D570 was observed. B. LDH assay, in which 50 μM of each compound was incubated with primary culture neurons for 48 hrs. The media was then collected and incubated with LDH assay substrate for 30 min at room temp, in the dark. After the reactions were quenched, the 0D490 was observed. C. COMET assay results; 50 μM compound was incubated with HepG2 cells for 24 hrs. The cells were then added low-melt agarose and plated on microscope slides. The cells were lysed and the DNA was denatured and subject to electrophoresis. Finally, the DNA was stained with SYBR Green and 100 nuclei were counted for each sample, in each experiment; the experiment was performed in triplicate. […] Cells were fixed and nuclei were stained with DAPI and 1,000 cells were counted per sample; three independent experiments were performed.
In an effort to characterize the toxicity of the compounds, an MTT assay was performed using human hepatocellular carcinoma, HepG2 cells and primary culture neurons to monitor the cell viability. […] The cytotoxicity of the compounds in primary neuronal cultures was determined using an LDH assay to measure cytolysis (FIG. 4B). […]

Caco-2 monolayer = Caco-2 monolayer permeability screen; format: in vitro ADME; settings: Caco-2
Procedure: To explore the in vitro ADME profiles of the compounds, additional tests were conducted.

CYP3A4 = CYP3A4 (Homo sapiens, UniProt P08684); experiment: CYP inhibition screening, CYP3A4-Midazolam; format: in vitro ADME
Chain of CYP3A4 (P08684 whole entry): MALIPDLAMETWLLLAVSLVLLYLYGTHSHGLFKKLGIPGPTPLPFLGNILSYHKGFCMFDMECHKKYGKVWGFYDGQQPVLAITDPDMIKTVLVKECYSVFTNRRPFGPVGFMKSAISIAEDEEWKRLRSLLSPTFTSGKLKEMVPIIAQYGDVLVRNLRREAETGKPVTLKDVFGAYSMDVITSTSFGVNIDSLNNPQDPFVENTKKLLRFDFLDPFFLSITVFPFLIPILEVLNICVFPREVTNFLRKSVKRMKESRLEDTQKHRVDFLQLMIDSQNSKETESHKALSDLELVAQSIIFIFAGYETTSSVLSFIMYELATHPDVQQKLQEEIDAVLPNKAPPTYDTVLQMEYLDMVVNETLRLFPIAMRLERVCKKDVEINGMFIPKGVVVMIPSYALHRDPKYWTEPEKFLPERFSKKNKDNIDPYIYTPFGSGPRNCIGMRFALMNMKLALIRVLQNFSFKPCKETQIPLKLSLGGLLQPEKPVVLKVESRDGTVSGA

CYP3A = experiment: CYP inhibition screening, CYP3A-Testosterone; format: in vitro ADME
CYP2C9 = CYP2C9 (Homo sapiens, UniProt P11712); experiment: CYP inhibition screening, CYP2C9; format: in vitro ADME
Chain of CYP2C9 (P11712 whole entry): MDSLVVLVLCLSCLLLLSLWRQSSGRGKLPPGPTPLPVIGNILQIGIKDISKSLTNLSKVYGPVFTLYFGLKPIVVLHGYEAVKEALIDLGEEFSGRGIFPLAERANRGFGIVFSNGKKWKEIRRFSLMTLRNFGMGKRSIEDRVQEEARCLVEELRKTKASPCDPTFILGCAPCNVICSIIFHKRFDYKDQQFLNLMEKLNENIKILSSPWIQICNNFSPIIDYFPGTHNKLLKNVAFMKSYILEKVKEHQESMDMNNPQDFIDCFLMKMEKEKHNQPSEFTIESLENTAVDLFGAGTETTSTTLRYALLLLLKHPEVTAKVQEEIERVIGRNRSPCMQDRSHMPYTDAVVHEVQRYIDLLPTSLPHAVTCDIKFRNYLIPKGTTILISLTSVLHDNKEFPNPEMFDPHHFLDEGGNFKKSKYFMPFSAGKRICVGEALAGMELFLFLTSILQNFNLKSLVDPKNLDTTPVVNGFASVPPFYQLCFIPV

CYP2D6 = CYP2D6 (Homo sapiens, UniProt P10635); experiment: CYP inhibition screening, CYP2D6; format: in vitro ADME
Chain of CYP2D6 (P10635 whole entry): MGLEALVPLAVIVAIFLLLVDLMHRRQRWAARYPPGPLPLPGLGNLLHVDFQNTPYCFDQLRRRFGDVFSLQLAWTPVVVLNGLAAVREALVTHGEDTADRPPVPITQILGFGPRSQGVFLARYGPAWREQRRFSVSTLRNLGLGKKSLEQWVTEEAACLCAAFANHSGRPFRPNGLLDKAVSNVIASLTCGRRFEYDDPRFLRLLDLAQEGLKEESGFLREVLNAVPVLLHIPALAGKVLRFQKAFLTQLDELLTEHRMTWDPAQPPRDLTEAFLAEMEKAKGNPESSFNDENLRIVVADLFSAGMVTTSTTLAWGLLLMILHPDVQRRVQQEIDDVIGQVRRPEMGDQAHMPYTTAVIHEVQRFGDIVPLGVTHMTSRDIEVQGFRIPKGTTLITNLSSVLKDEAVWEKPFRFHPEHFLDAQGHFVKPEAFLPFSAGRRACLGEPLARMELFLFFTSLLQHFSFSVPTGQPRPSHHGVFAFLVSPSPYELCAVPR

CYP2C19 = CYP2C19 (Homo sapiens, UniProt P33261); experiment: CYP inhibition screening, CYP2C19; format: in vitro ADME
Chain of CYP2C19 (P33261 whole entry): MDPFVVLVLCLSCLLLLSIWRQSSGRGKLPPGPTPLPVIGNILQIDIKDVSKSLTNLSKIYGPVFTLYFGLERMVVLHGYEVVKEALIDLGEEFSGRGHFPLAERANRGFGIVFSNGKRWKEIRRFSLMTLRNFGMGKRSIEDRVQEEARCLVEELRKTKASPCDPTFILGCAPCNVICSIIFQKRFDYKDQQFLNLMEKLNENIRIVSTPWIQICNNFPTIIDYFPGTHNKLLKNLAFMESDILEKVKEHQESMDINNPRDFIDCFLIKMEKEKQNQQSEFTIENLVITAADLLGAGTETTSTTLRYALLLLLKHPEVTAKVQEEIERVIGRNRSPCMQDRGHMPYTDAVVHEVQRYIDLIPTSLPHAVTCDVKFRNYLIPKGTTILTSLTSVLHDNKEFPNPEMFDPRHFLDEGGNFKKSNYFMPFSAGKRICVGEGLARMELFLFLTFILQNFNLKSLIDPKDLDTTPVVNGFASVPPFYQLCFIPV

CYP1A2 = target: T4, CYP1A2 (Homo sapiens, UniProt P05177); experiment: CYP inhibition screening, CYP1A2; format: in vitro ADME
T4 sequence (P05177 1-516): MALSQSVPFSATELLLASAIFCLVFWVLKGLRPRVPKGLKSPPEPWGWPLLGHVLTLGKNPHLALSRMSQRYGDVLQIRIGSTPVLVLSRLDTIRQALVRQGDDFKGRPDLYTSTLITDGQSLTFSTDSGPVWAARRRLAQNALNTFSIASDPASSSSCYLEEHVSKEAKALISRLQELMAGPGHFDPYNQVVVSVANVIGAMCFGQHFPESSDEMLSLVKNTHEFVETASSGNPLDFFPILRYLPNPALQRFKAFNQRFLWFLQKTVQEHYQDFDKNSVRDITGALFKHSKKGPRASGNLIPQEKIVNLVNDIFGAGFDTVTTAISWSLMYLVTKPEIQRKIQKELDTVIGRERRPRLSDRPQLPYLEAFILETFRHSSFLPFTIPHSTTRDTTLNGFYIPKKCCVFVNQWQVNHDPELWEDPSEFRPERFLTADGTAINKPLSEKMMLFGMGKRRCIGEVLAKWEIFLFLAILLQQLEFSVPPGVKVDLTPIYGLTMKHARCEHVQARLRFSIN

AEP = experiment: Oxygen-glucose deprivation (OGD) in primary neurons, AEP activity; format: cell-based; settings: 0.1 μM or 1.0 μM compound
Procedure: (§4) A. AEP activity, measured in primary neuronal cultures with 5 μM Cbz-Ala-Ala-Asn-AMC (x-axis denotes neurons were treated with 0.1 μM or 1.0 μM specified compound). B. Caspase activity, measured in primary neuronal cultures with 5 μM Ac-Asp-Glu-Val-Asp-AMC. C. Cathepsin activity, measured in primary neuronal cultures with 5 μM D-Val-Leu-Lys-AMC. D. Inhibition of APP cleavage. Lysates of primary cortical neurons pre-incubated with compounds for 30 min, underwent OGD for 4 hrs, were reperfused for 18 hrs (normoxia neurons remained at normoxic conditions). E. APP can be cleaved in a dose-dependent manner. Lysates of primary cortical neurons pre-incubated with compounds for 30 min, underwent OGD for 4 hrs, were reperfused for 18 hrs (normoxia neurons remained at normoxic conditions).
Depriving cells of oxygen and glucose is a cellular model that is employed to trigger acidosis in cultured cells. The efficacy of the compounds in a cellular model of oxygen-glucose deprivation (OGD) was determined in an effort to mimic the effects of stroke in primary cultured neurons. As a result of depriving neurons of oxygen and glucose-containing medium, AEP activity was doubled (FIG. 7A, ‘DMSO-Norm’ compared to ‘DMSO-OGD’), while Caspase-3 and Cathepsin activities remained relatively unchanged. […]

[3] = tested on: cleavage of the amyloid precursor protein (APP); experiment: OGD in primary cortical neurons, APP cleavage (immunoblot); format: cell-based
Procedure: as §4
Depriving cells of oxygen and glucose is a cellular model that is employed to trigger acidosis in cultured cells. The efficacy of the compounds in a cellular model of oxygen-glucose deprivation (OGD) was determined in an effort to mimic the effects of stroke in primary cultured neurons. As a result of depriving neurons of oxygen and glucose-containing medium, AEP activity was doubled (FIG. 7A, ‘DMSO-Norm’ compared to ‘DMSO-OGD’), while Caspase-3 and Cathepsin activities remained relatively unchanged. […] Cleavage of APP is observed in response to only DMSO treatment (FIG. 7D, lane 2), and it appears that upon the treatment of 1 μM of compounds 10, 11, and 12, and just 0.1 μM of compounds 31, 38 and 64, the cleavage was blocked, presumably due to AEP inhibition.
Compounds were pre-incubated with primary culture neurons, DIV13, for 30 min. The medium was exchanged for glucose-free DMEM and neurons were de-gased and incubated at 37° C., 95% N2/5% CO2 for 4 hrs with compounds. The medium was exchanged for DMEM and supplemented with compounds, then neurons were reperfused for 18 hrs under normoxic conditions. The neuronal lysates were prepared for AEP, Caspase-3 and Cathepsin assays. Moreover, immunoblotting analysis was conducted with the neuronal lysates using anti-APP, anti-AEP antibodies.

[4] = PAMPA
[5] = Liver microsomal stability, human; settings: human liver microsomes
[6] = Liver microsomal stability, mouse; settings: mouse liver microsomes

Mean Remaining Parent (with NADPH) ([1]; 0.5 h): 96%
Mean Remaining Parent (NADPH-free) ([1]; 30 min): 104%
Mean Remaining Parent (NADPH-free) [2]: 100%
Mean Remaining Parent (with NADPH) [2]: 91%
SMILES: CC(=O)CC(c1ccccc1)c1c(O)c2ccccc2oc1=O (centres unmarked) [Warfarin]

IC50 (Cathepsin-L): > 100 µM
IC50 (Cathepsin-S): > 100 µM
IC50 (Caspase-3): > 100 µM
IC50 (Caspase-8): > 100 µM
SMILES: CN(C)c1ccc(N2C(=O)C=CC2=O)cc1 [Compound 22]
genotoxicity (COMET and micronucleus assays) (HepG2 cells): the only test compound to show genotoxicity

SMILES: Cc1cccc(NCc2ccc(O)c3ncccc23)c1C [Compound 12]
A -> B Papp (Caco-2 monolayer): 1.4 10^−6 cm · s^−1
B -> A Papp (Caco-2 monolayer): 3.7 10^−6 cm · s^−1
RE (Caco-2 monolayer): 2.7
CYP inhibition, CYP3A4-Midazolam (CYP3A4; test concentration 3 μM): −2.5%
CYP inhibition, CYP3A4-Midazolam (CYP3A4; test concentration 10 μM): −2.5%
CYP inhibition, CYP3A-Testosterone (CYP3A; test concentration 3 μM): 14.2%
CYP inhibition, CYP3A-Testosterone (CYP3A; test concentration 10 μM): 27.6%
CYP inhibition, CYP2C9 (CYP2C9; test concentration 3 μM): 4.3%
CYP inhibition, CYP2C9 (CYP2C9; test concentration 10 μM): −2.7%
CYP inhibition, CYP2D6 (CYP2D6; test concentration 3 μM): 2.9%
CYP inhibition, CYP2D6 (CYP2D6; test concentration 10 μM): −2.6%
CYP inhibition, CYP2C19 (CYP2C19; test concentration 3 μM): 13.4%
CYP inhibition, CYP2C19 (CYP2C19; test concentration 10 μM): 29.4%
CYP inhibition, CYP1A2 (CYP1A2; test concentration 3 μM): 28.4%
CYP inhibition, CYP1A2 (CYP1A2; test concentration 10 μM): 44.5%
AEP activity in OGD-treated neurons (AEP): slight decrease
dose dependence of APP cleavage after OGD [3]: dose-dependent decrease
cleavage of APP after OGD ([3]; 1 μM compound): blocked
Pe [4]: <LLOQ
Mean Remaining Parent (NADPH-free) [5]: 1%
Mean Remaining Parent (with NADPH) ([5]; 30 min of incubation): 1%
Mean Remaining Parent (NADPH-free) [6]: 0%
Mean Remaining Parent (with NADPH) [6]: 1%
